Reference: the supplement of paper PMC10883282
± gives the standard deviation of the averaged measurements.

What was measured:
Assay in all cases: relative viability vs DMSO control (72 h) (fraction); higher = more viable cells
[1] = tested on: SW872
In short: (§1)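 Sarcoma cell lines were seeded in 384-well plates at densities set to reach 80–90% confluence. After 24 h, 2.5 µl of serially diluted compound was added (source plates 10 mM to 0.0002 mM), and plates were held 72 h at 37 °C, 5% CO2, with 0.1% DMSO vehicle and a 5 µM positive control. Relative viability came from ATPLite readings as percent growth, averaged over up to triplicate wells. Data were rescaled so full viability equals 1 and none equals 0.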

[2] = tested on: SW684
In short: as §1

[3] = tested on: SW982
In short: as §1

[4] = tested on: A204
In short: as §1

[5] = tested on: KHOS-NP
In short: as §1

[6] = tested on: RD-ES
In short: as §1

[7] = tested on: SK-LMS-1
In short: as §1

[8] = tested on: G401
In short: as §1

[9] = tested on: VA-ES-BJ
In short: as §1

[10] = tested on: SK-ES-1
In short: as §1

[11] = tested on: HS729
In short: as §1

[12] = tested on: HT1080
In short: as §1

CCS(=O)(=O)N1CC(CC#N)(n2cc(-c3ncnc4[nH]ccc34)cn2)C1 [Baricitinib]
Conditions	relative viability
[1], 0.00017 µM	1.014 ± 0.0033
[1], 0.00051 µM	1.01 ± 0.022
[1], 0.00152 µM	1.03 ± 0.042
[1], 0.00457 µM	1.03 ± 0.036
[1], 0.01372 µM	1.05 ± 0.013
[1], 0.04115 µM	1.04 ± 0.043
[1], 0.1235 µM	1.03 ± 0.02
[1], 0.3704 µM	1.03 ± 0.043
[1], 1.111 µM	1.05 ± 0.033
[1], 3.333 µM	1.01 ± 0.03
[1], 10 µM	0.877 ± 0.022
[2], 0.00017 µM	1.06 ± 0.051
[2], 0.00051 µM	1.04 ± 0.041
[2], 0.00152 µM	1.12 ± 0.032
[2], 0.00457 µM	1.09 ± 0.023
[2], 0.01372 µM	1.13 ± 0.079
[2], 0.04115 µM	1.07 ± 0.032
[2], 0.1235 µM	1.09 ± 0.063
[2], 0.3704 µM	1.03 ± 0.024
[2], 1.111 µM	1.07 ± 0.069
[2], 3.333 µM	1.05 ± 0.049
[2], 10 µM	0.915 ± 0.062
[3], 0.00017 µM	0.981 ± 0.043
[3], 0.00051 µM	0.983 ± 0.026
[3], 0.00152 µM	0.976 ± 0.02
[3], 0.00457 µM	0.985 ± 0.053
[3], 0.01372 µM	1.0047 ± 0.0004
[3], 0.04115 µM	0.98 ± 0.023
[3], 0.1235 µM	0.987 ± 0.02
[3], 0.3704 µM	0.993 ± 0.021
[3], 1.111 µM	0.98 ± 0.044
[3], 3.333 µM	0.966 ± 0.021
[3], 10 µM	0.748 ± 0.034
[4], 0.00017 µM	1.06 ± 0.053
[4], 0.00051 µM	1.04 ± 0.037
[4], 0.00152 µM	1.05 ± 0.03
[4], 0.00457 µM	1.05 ± 0.043
[4], 0.01372 µM	1.03 ± 0.018
[4], 0.04115 µM	1.04 ± 0.021
[4], 0.1235 µM	1.02 ± 0.022
[4], 0.3704 µM	1.01 ± 0.022
[4], 1.111 µM	0.971 ± 0.051
[4], 3.333 µM	0.934 ± 0.046
[4], 10 µM	0.83 ± 0.013
[5], 0.00017 µM	1.04 ± 0.032
[5], 0.00051 µM	1.04 ± 0.017
[5], 0.00152 µM	1.052 ± 0.0074
[5], 0.00457 µM	1.06 ± 0.021
[5], 0.01372 µM	1.04 ± 0.025
[5], 0.04115 µM	1.04 ± 0.013
[5], 0.1235 µM	1.06 ± 0.021
[5], 0.3704 µM	1.02 ± 0.011
[5], 1.111 µM	1.03 ± 0.019
[5], 3.333 µM	0.985 ± 0.03
[5], 10 µM	0.906 ± 0.011
[6], 0.00017 µM	0.981 ± 0.015
[6], 0.00051 µM	0.9701 ± 0.0086
[6], 0.00152 µM	0.947 ± 0.03
[6], 0.00457 µM	0.9683 ± 0.0032
[6], 0.01372 µM	0.951 ± 0.012
[6], 0.04115 µM	0.947 ± 0.041
[6], 0.1235 µM	0.956 ± 0.017
[6], 0.3704 µM	0.9847 ± 0.005
[6], 1.111 µM	1.03 ± 0.03
[6], 3.333 µM	1.04 ± 0.028
[6], 10 µM	1.04 ± 0.0094
[7], 0.00017 µM	1.06 ± 0.02
[7], 0.00051 µM	1.07 ± 0.042
[7], 0.00152 µM	1.07 ± 0.064
[7], 0.00457 µM	1.03 ± 0.024
[7], 0.01372 µM	1.02 ± 0.032
[7], 0.04115 µM	1.07 ± 0.037
[7], 0.1235 µM	1.06 ± 0.026
[7], 0.3704 µM	1.04 ± 0.029
[7], 1.111 µM	1.06 ± 0.07
[7], 3.333 µM	1.01 ± 0.03
[7], 10 µM	0.878 ± 0.067
[8], 0.00017 µM	0.955 ± 0.033
[8], 0.00051 µM	0.9564 ± 0.009
[8], 0.00152 µM	0.975 ± 0.025
[8], 0.00457 µM	0.963 ± 0.048
[8], 0.01372 µM	0.948 ± 0.034
[8], 0.04115 µM	0.98 ± 0.018
[8], 0.1235 µM	0.965 ± 0.033
[8], 0.3704 µM	0.961 ± 0.026
[8], 1.111 µM	0.978 ± 0.025
[8], 3.333 µM	0.959 ± 0.035
[8], 10 µM	0.887 ± 0.038
[9], 0.00017 µM	1.02 ± 0.05
[9], 0.00051 µM	1.01 ± 0.038
[9], 0.00152 µM	1.02 ± 0.055
[9], 0.00457 µM	1.03 ± 0.023
[9], 0.01372 µM	1.05 ± 0.053
[9], 0.04115 µM	1.03 ± 0.021
[9], 0.1235 µM	1.03 ± 0.038
[9], 0.3704 µM	1.03 ± 0.015
[9], 1.111 µM	1.04 ± 0.021
[9], 3.333 µM	1.06 ± 0.018
[9], 10 µM	0.996 ± 0.025
[10], 0.00017 µM	0.959 ± 0.027
[10], 0.00051 µM	1.01 ± 0.012
[10], 0.00152 µM	1.004 ± 0.01
[10], 0.00457 µM	0.986 ± 0.053
[10], 0.01372 µM	0.9898 ± 0.0065
[10], 0.04115 µM	0.987 ± 0.061
[10], 0.1235 µM	0.987 ± 0.063
[10], 0.3704 µM	0.958 ± 0.043
[10], 1.111 µM	1.04 ± 0.034
[10], 3.333 µM	1.05 ± 0.019
[10], 10 µM	1.01 ± 0.054
[11], 0.00017 µM	0.937 ± 0.027
[11], 0.00051 µM	0.97 ± 0.052
[11], 0.00152 µM	0.999 ± 0.052
[11], 0.00457 µM	0.996 ± 0.0091
[11], 0.01372 µM	1 ± 0.04
[11], 0.04115 µM	0.959 ± 0.036
[11], 0.1235 µM	0.94 ± 0.036
[11], 0.3704 µM	0.9518 ± 0.0041
[11], 1.111 µM	0.926 ± 0.016
[11], 3.333 µM	0.9194 ± 0.006
[11], 10 µM	0.87 ± 0.066
[12], 0.00017 µM	1.05 ± 0.029
[12], 0.00051 µM	1.04 ± 0.013
[12], 0.00152 µM	1.05 ± 0.017
[12], 0.00457 µM	1.04 ± 0.0015
[12], 0.01372 µM	1.05 ± 0.018
[12], 0.04115 µM	1.06 ± 0.029
[12], 0.1235 µM	1.024 ± 0.0035
[12], 0.3704 µM	1.04 ± 0.029
[12], 1.111 µM	1.02 ± 0.014
[12], 3.333 µM	1.07 ± 0.054
[12], 10 µM	1.024 ± 0.0044
